Assay results: patent publication US20250145594A1, “MODULATORS OF THE INTEGRATED STRESS PATHWAY” (Calico Life Sciences LLC, priority 2020, published 2025)

tested on: ATF4 luciferase reporter in HEK293T cells; assay: ATF4-Luc assay (in vitro model of VWMD); format: cell-based, human; details: Homo sapiens, HEK-293T, 7 h, HEK293T cells carrying the ATF4 luciferase reporter, 1 μg/mL tunicamycin, One Glo luminescence
In short: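 Stable HEK293T line expressing firefly luciferase behind the human ATF4 5′-UTR, treated with 1 μg/mL tunicamycin plus compound for 7 hours. Luminescence read with One Glo; EC50 determined.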

Structure (SMILES)	EC50 [nM]
O=C(NC12CC(c3ccc(-n4cnc(C(F)(F)F)c4)nc3)(C1)C2)[C@H]1C[C@@H](O)c2cc(Cl)c(F)cc2O1 [Compound 480, (2R,4R)-6-chloro-7-fluoro-4-hydroxy-N-(3-{6-[4-(trifluoromethyl)-1H-imidazol-1-yl]pyridin-3-yl}bicyclo[1.1.1]pentan-1-yl)-3,4-dihydro-2H-1-benzopyran-2-carboxamide]	< 10
O=C(N[C@H]1CC[C@H](n2cc(-c3ccc(OC(F)(F)F)cn3)cn2)CC1)[C@H]1C[C@@H](O)c2cc(Cl)ccc2O1 [Compound 481, (2R,4R)-6-chloro-4-hydroxy-N-[(1r,4R)-4-{4-[5-(trifluoromethoxy)pyridin-2-yl]-1H-pyrazol-1-yl}cyclohexyl]-3,4-dihydro-2H-1-benzopyran-2-carboxamide]	< 10
O=C(NC12CC(n3cc(-c4ccc(C(F)(F)F)cn4)cn3)(C1)C2)[C@H]1C[C@@H](O)c2cc(Cl)c(F)cc2O1 [Compound 482, (2R,4R)-6-chloro-7-fluoro-4-hydroxy-N-(3-{4-[5-(trifluoromethyl)pyridin-2-yl]-1H-pyrazol-1-yl}bicyclo[1.1.1]pentan-1-yl)-3,4-dihydro-2H-1-benzopyran-2-carboxamide]	< 10
O=C(NC12CC(n3cc(OCCOC(F)(F)F)cn3)(C1)C2)[C@H]1C[C@@H](O)c2cc(C(F)(F)F)c(F)cc2O1 [Compound 483, (2R,4R)-7-fluoro-4-hydroxy-N-(3-{4-[2-(trifluoromethoxy)ethoxy]-1H-pyrazol-1-yl}bicyclo[1.1.1]pentan-1-yl)-6-(trifluoromethyl)-3,4-dihydro-2H-1-benzopyran-2-carboxamide]	< 10
O=C(NC12CC(n3cc(-c4ccc(C(F)(F)F)cn4)cn3)(C1)C2)[C@H]1C[C@@H](O)c2cc(C(F)(F)F)c(F)cc2O1 [Compound 484, (2R,4R)-7-fluoro-4-hydroxy-6-(trifluoromethyl)-N-(3-{4-[5-(trifluoromethyl)pyridin-2-yl]-1H-pyrazol-1-yl}bicyclo[1.1.1]pentan-1-yl)-3,4-dihydro-2H-1-benzopyran-2-carboxamide]	< 10
O=C(NC12CC(n3cc(-c4ccc(OC(F)(F)F)cn4)cn3)(C1)C2)[C@H]1C[C@@H](O)c2cc(C(F)(F)F)c(F)cc2O1 [Compound 485, (2R,4R)-7-fluoro-4-hydroxy-N-(3-{4-[5-(trifluoromethoxy)pyridin-2-yl]-1H-pyrazol-1-yl}bicyclo[1.1.1]pentan-1-yl)-6-(trifluoromethyl)-3,4-dihydro-2H-1-benzopyran-2-carboxamide]	< 10
O=C(N[C@H]1CC[C@H](n2cc(OCCOC(F)(F)F)cn2)CC1)[C@H]1C[C@H](O)c2cc(C(F)(F)F)c(F)cc2O1 [Compound 486, (2R,4R)-7-fluoro-4-hydroxy-N-[(1r,4R)-4-{4-[2-(trifluoromethoxy)ethoxy]-1H-pyrazol-1-yl}cyclohexyl]-6-(trifluoromethyl)-3,4-dihydro-2H-1-benzopyran-2-carboxamide]	< 10
O=C(NC12CC(n3cc(OCCOC(F)(F)F)nn3)(C1)C2)[C@H]1C[C@@H](O)c2cc(Cl)ccc2O1 [Compound 487, (2R,4R)-6-chloro-4-hydroxy-N-(3-{4-[2-(trifluoromethoxy)ethoxy]-1H-1,2,3-triazol-1-yl}bicyclo[1.1.1]pentan-1-yl)-3,4-dihydro-2H-1-benzopyran-2-carboxamide]	< 10
O=C(CO[C@H]1C[C@@H](OC(F)(F)F)C1)NC12CCC(NC(=O)[C@H]3C[C@@H](O)c4cc(Cl)c(F)cc4O3)(CC1)C[C@@H]2O [Compound 488, (2R,4R)-6-chloro-7-fluoro-4-hydroxy-N-[(3S)-3-hydroxy-4-(2-{[(1s,3R)-3-(trifluoromethoxy)cyclobutyl]oxy}acetamido)bicyclo[2.2.2]octan-1-yl]-3,4-dihydro-2H-1-benzopyran-2-carboxamide]	< 10
O=C(CO[C@H]1C[C@@H](OC(F)(F)F)C1)NC12CCC(NC(=O)[C@H]3C[C@@H](O)c4cc(C(F)(F)F)ccc4O3)(CC1)[C@@H](O)C2 [Compound 489, (2R,4R)-4-hydroxy-N-[(2S)-2-hydroxy-4-(2-{[(1s,3R)-3-(trifluoromethoxy)cyclobutyl]oxy}acetamido)bicyclo[2.2.2]octan-1-yl]-6-(trifluoromethyl)-3,4-dihydro-2H-1-benzopyran-2-carboxamide]	< 10
O=C(CO[C@H]1C[C@@H](OC(F)(F)F)C1)NC12CCC(NC(=O)[C@H]3C[C@@H](O)c4cc(Cl)c(F)cc4O3)(CC1)[C@@H](O)C2 [Compound 490, (2R,4R)-6-chloro-7-fluoro-4-hydroxy-N-[(2S)-2-hydroxy-4-(2-{[(1s,3R)-3-(trifluoromethoxy)cyclobutyl]oxy}acetamido)bicyclo[2.2.2]octan-1-yl]-3,4-dihydro-2H-1-benzopyran-2-carboxamide]	< 10
O=C(CO[C@H]1C[C@@H](OC(F)(F)F)C1)NC12CC(NC(=O)[C@@H]3C[C@@H](O)c4cc(Cl)c(F)cc4O3)(C1)C2 [Compound 491, (2S,4R)-6-chloro-7-fluoro-4-hydroxy-N-[3-(2-{[(1s,3R)-3-(trifluoromethoxy)cyclobutyl]oxy}acetamido)bicyclo[1.1.1]pentan-1-yl]-3,4-dihydro-2H-1-benzopyran-2-carboxamide]	< 10
O=C(CO[C@H]1C[C@@H](OC(F)(F)F)C1)NC12CC(NC(=O)[C@@H]3C[C@@H](O)c4cc(Cl)c(Cl)cc4O3)(C1)C2 [Compound 492, (2S,4R)-6,7-dichloro-4-hydroxy-N-[3-(2-{[(1s,3R)-3-(trifluoromethoxy)cyclobutyl]oxy}acetamido)bicyclo[1.1.1]pentan-1-yl]-3,4-dihydro-2H-1-benzopyran-2-carboxamide]	< 10
O=C(CO[C@H]1C[C@@H](OC(F)(F)F)C1)NC12CC(NC(=O)[C@H]3C[C@@H](O)c4cc(C(F)(F)F)ccc4O3)(C1)C2 [Compound 493, (2R,4R)-4-hydroxy-N-[3-(2-{[(1s,3S)-3-(trifluoromethoxy)cyclobutyl]oxy}acetamido)bicyclo[1.1.1]pentan-1-yl]-6-(trifluoromethyl)-3,4-dihydro-2H-1-benzopyran-2-carboxamide]	< 10
O=C(CO[C@H]1C[C@@H](OC(F)(F)F)C1)NC12CC(NC(=O)[C@H]3C[C@@H](O)c4cc(Cl)c(Cl)cc4O3)(C1)C2 [Compound 494, (2R,4R)-6,7-dichloro-4-hydroxy-N-[3-(2-{[(1s,3S)-3-(trifluoromethoxy)cyclobutyl]oxy}acetamido)bicyclo[1.1.1]pentan-1-yl]-3,4-dihydro-2H-1-benzopyran-2-carboxamide]	< 10
O=C(CO[C@H]1C[C@@H](OC(F)(F)F)C1)NC12CC(NC(=O)[C@H]3C[C@H](O)c4cc(Cl)c(Cl)cc4O3)(C1)C2 [Compound 495, (2R,4S)-6,7-dichloro-4-hydroxy-N-[3-(2-{[(1s,3S)-3-(trifluoromethoxy)cyclobutyl]oxy}acetamido)bicyclo[1.1.1]pentan-1-yl]-3,4-dihydro-2H-1-benzopyran-2-carboxamide]	< 10
O=C(CO[C@H]1C[C@@H](OC(F)(F)F)C1)NC12CC(NC(=O)[C@H]3C[C@H](O)c4cc(Cl)c(F)cc4O3)(C1)C2 [Compound 496, (2R,4S)-6-chloro-7-fluoro-4-hydroxy-N-[3-(2-{[(1s,3S)-3-(trifluoromethoxy)cyclobutyl]oxy}acetamido)bicyclo[1.1.1]pentan-1-yl]-3,4-dihydro-2H-1-benzopyran-2-carboxamide]	< 10
COc1cc2cn(C34CC(NC(=O)[C@H]5C[C@@H](O)c6cc(Cl)ccc6O5)(C3)C4)nc2cn1 [Compound 497, (2R,4R)-6-chloro-4-hydroxy-N-[3-(5-methoxy-2H-pyrazolo[3,4-c]pyridin-2-yl)bicyclo[1.1.1]pentan-1-yl]-3,4-dihydro-2H-1-benzopyran-2-carboxamide]	10 to 50
COc1cc2cn(C34CC(NC(=O)[C@H]5C[C@@H](O)c6cc(Cl)c(F)cc6O5)(C3)C4)nc2cn1 [Compound 498, (2R,4R)-6-chloro-7-fluoro-4-hydroxy-N-[3-(5-methoxy-2H-pyrazolo[3,4-c]pyridin-2-yl)bicyclo[1.1.1]pentan-1-yl]-3,4-dihydro-2H-1-benzopyran-2-carboxamide]	10 to 50
COc1cc2cn(C34CC(NC(=O)[C@H]5C[C@@H](O)c6cc(C(F)(F)F)ccc6O5)(C3)C4)nc2cn1 [Compound 499, (2R,4R)-4-hydroxy-N-[3-(5-methoxy-2H-pyrazolo[3,4-c]pyridin-2-yl)bicyclo[1.1.1]pentan-1-yl]-6-(trifluoromethyl)-3,4-dihydro-2H-1-benzopyran-2-carboxamide]	10 to 50
COc1ccc2cn(C34CC(NC(=O)[C@H]5C[C@@H](O)c6cc(Cl)ccc6O5)(C3)C4)nc2c1 [Compound 500, (2R,4R)-6-chloro-4-hydroxy-N-[3-(6-methoxy-2H-indazol-2-yl)bicyclo[1.1.1]pentan-1-yl]-3,4-dihydro-2H-1-benzopyran-2-carboxamide]	10 to 50
COc1ccc2nn(C34CC(NC(=O)[C@H]5C[C@@H](O)c6cc(Cl)ccc6O5)(C3)C4)cc2c1 [Compound 501, (2R,4R)-6-chloro-4-hydroxy-N-[3-(5-methoxy-2H-indazol-2-yl)bicyclo[1.1.1]pentan-1-yl]-3,4-dihydro-2H-1-benzopyran-2-carboxamide]	10 to 50
O=C(NC12CC(n3cc4cc(OC(F)F)ccc4n3)(C1)C2)[C@H]1C[C@@H](O)c2cc(Cl)ccc2O1 [Compound 502, (2R,4R)-6-chloro-N-{3-[5-(difluoromethoxy)-2H-indazol-2-yl]bicyclo[1.1.1]pentan-1-yl}-4-hydroxy-3,4-dihydro-2H-1-benzopyran-2-carboxamide]	50 to 250
COc1cc2cn(C34CC(NC(=O)[C@H]5C[C@@H](O)c6cc(Cl)c(Cl)cc6O5)(C3)C4)nc2cn1 [Compound 503, (2R,4R)-6,7-dichloro-4-hydroxy-N-[3-(5-methoxy-2H-pyrazolo[3,4-c]pyridin-2-yl)bicyclo[1.1.1]pentan-1-yl]-3,4-dihydro-2H-1-benzopyran-2-carboxamide]	< 10
